# Tested on: HOP-62 complex spheroids with HUVEC/MSC, viability
# Assay: Anticancer human tumor HOP-62 cell line growth inhibition [RAS];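 further: spheroids exposed to agents for seven days before readout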;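 on viability, T/C: 100% = DMSO vehicle control viability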
# Settings: for IC50: curve of first compound; for viability, T/C: stronger effect = lower value
# In short: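 Multi-cell-type spheroids: tumor cells plus HUVEC endothelial cells and mesenchymal stem cells. RAS-pathway inhibitors were combined with targeted agents, each dosed in half-log steps down from clinical Cmax, or from 10 microM when Cmax was unknown.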
compound,measurement,setting,value
CC1(C)CCC(Nc2ncc(C(F)(F)F)c(-c3c[nH]c4c(P(C)(C)=O)c(C#N)ccc34)n2)CN1 (centres undefined) + C=CC(=O)N1CCN(c2nc(OCC3CCCN3C)nc3c(F)c(-c4nc(N)cc(C)c4C(F)(F)F)c(Cl)cc23)C(C)C1,IC50,second compound 0.00316 µM,< 0.949 nM
same,IC50,second compound 0.01 µM,0.977 nM
same,IC50,second compound 0.0316 µM,< 0.949 nM
same,IC50,second compound 0.1 µM,< 0.949 nM
same,IC50,second compound 0.316 µM,< 0.949 nM
same,IC50,second compound 1 µM,0.959 nM
same,"viability, T/C","second compound 0.00316 µM, first compound 0.000949 µM",49.6%
same,"viability, T/C","second compound 0.00316 µM, first compound 0.003 µM",25%
same,"viability, T/C","second compound 0.00316 µM, first compound 0.00949 µM",19.8%
same,"viability, T/C","second compound 0.00316 µM, first compound 0.03 µM",15.8%
same,"viability, T/C","second compound 0.00316 µM, first compound 0.0949 µM",20.4%
same,"viability, T/C","second compound 0.00316 µM, first compound 0.3 µM",21.5%
same,"viability, T/C","second compound 0.01 µM, first compound 0.000949 µM",50.7%
same,"viability, T/C","second compound 0.01 µM, first compound 0.003 µM",24%
same,"viability, T/C","second compound 0.01 µM, first compound 0.00949 µM",20.3%
same,"viability, T/C","second compound 0.01 µM, first compound 0.03 µM",16.4%
same,"viability, T/C","second compound 0.01 µM, first compound 0.0949 µM",20%
same,"viability, T/C","second compound 0.01 µM, first compound 0.3 µM",19.8%
same,"viability, T/C","second compound 0.0316 µM, first compound 0.000949 µM",45.2%
same,"viability, T/C","second compound 0.0316 µM, first compound 0.003 µM",23.8%
same,"viability, T/C","second compound 0.0316 µM, first compound 0.00949 µM",19.6%
same,"viability, T/C","second compound 0.0316 µM, first compound 0.03 µM",15.4%
same,"viability, T/C","second compound 0.0316 µM, first compound 0.0949 µM",20.8%
same,"viability, T/C","second compound 0.0316 µM, first compound 0.3 µM",22.5%
same,"viability, T/C","second compound 0.1 µM, first compound 0.000949 µM",45.1%
same,"viability, T/C","second compound 0.1 µM, first compound 0.003 µM",22.6%
same,"viability, T/C","second compound 0.1 µM, first compound 0.00949 µM",21.2%
same,"viability, T/C","second compound 0.1 µM, first compound 0.03 µM",17.5%
same,"viability, T/C","second compound 0.1 µM, first compound 0.0949 µM",16%
same,"viability, T/C","second compound 0.1 µM, first compound 0.3 µM",20%
same,"viability, T/C","second compound 0.316 µM, first compound 0.000949 µM",48.8%
same,"viability, T/C","second compound 0.316 µM, first compound 0.003 µM",25.8%
same,"viability, T/C","second compound 0.316 µM, first compound 0.00949 µM",19.7%
same,"viability, T/C","second compound 0.316 µM, first compound 0.03 µM",16.8%
same,"viability, T/C","second compound 0.316 µM, first compound 0.0949 µM",21.2%
same,"viability, T/C","second compound 0.316 µM, first compound 0.3 µM",22.7%
same,"viability, T/C","second compound 1 µM, first compound 0.000949 µM",50.3%
same,"viability, T/C","second compound 1 µM, first compound 0.003 µM",20.7%
same,"viability, T/C","second compound 1 µM, first compound 0.00949 µM",18.4%
same,"viability, T/C","second compound 1 µM, first compound 0.03 µM",19.6%
same,"viability, T/C","second compound 1 µM, first compound 0.0949 µM",17.6%
same,"viability, T/C","second compound 1 µM, first compound 0.3 µM",19.1%
CCN1CCN(Cc2ccc(Nc3ncc(F)c(-c4cc(F)c5nc(C)n(C(C)C)c5c4)n3)nc2)CC1 + CCn1c(-c2cc(N3CCN(C)CC3)cnc2C(C)OC)c2c3cc(ccc31)-c1csc(n1)CC(NC(=O)C1CC1C)C(=O)N1CCCC(N1)C(=O)OCC(C)(C)C2,IC50,second compound 0.000949 µM,> 1000 nM
same,IC50,second compound 0.003 µM,> 1000 nM
same,IC50,second compound 0.00949 µM,> 1000 nM
same,IC50,second compound 0.03 µM,70.4 nM
same,IC50,second compound 0.0949 µM,< 3.16 nM
same,IC50,second compound 0.3 µM,< 3.16 nM
same,"viability, T/C","second compound 0.000949 µM, first compound 0.00316 µM",121%
same,"viability, T/C","second compound 0.000949 µM, first compound 0.01 µM",117%
same,"viability, T/C","second compound 0.000949 µM, first compound 0.0316 µM",85.5%
same,"viability, T/C","second compound 0.000949 µM, first compound 0.1 µM",109%
same,"viability, T/C","second compound 0.000949 µM, first compound 0.316 µM",114%
same,"viability, T/C","second compound 0.000949 µM, first compound 1 µM",87.8%
same,"viability, T/C","second compound 0.003 µM, first compound 0.00316 µM",97.9%
same,"viability, T/C","second compound 0.003 µM, first compound 0.01 µM",81.7%
same,"viability, T/C","second compound 0.003 µM, first compound 0.0316 µM",78.2%
same,"viability, T/C","second compound 0.003 µM, first compound 0.1 µM",90.4%
same,"viability, T/C","second compound 0.003 µM, first compound 0.316 µM",104%
same,"viability, T/C","second compound 0.003 µM, first compound 1 µM",62.6%
same,"viability, T/C","second compound 0.00949 µM, first compound 0.00316 µM",70.7%
same,"viability, T/C","second compound 0.00949 µM, first compound 0.01 µM",57.9%
same,"viability, T/C","second compound 0.00949 µM, first compound 0.0316 µM",68.2%
same,"viability, T/C","second compound 0.00949 µM, first compound 0.1 µM",74.3%
same,"viability, T/C","second compound 0.00949 µM, first compound 0.316 µM",57.3%
same,"viability, T/C","second compound 0.00949 µM, first compound 1 µM",50.8%
same,"viability, T/C","second compound 0.03 µM, first compound 0.00316 µM",52.8%
same,"viability, T/C","second compound 0.03 µM, first compound 0.01 µM",52.4%
same,"viability, T/C","second compound 0.03 µM, first compound 0.0316 µM",51.9%
same,"viability, T/C","second compound 0.03 µM, first compound 0.1 µM",49%
same,"viability, T/C","second compound 0.03 µM, first compound 0.316 µM",32.6%
same,"viability, T/C","second compound 0.03 µM, first compound 1 µM",50.4%
same,"viability, T/C","second compound 0.0949 µM, first compound 0.00316 µM",38.4%
same,"viability, T/C","second compound 0.0949 µM, first compound 0.01 µM",42.8%
same,"viability, T/C","second compound 0.0949 µM, first compound 0.0316 µM",39.2%
same,"viability, T/C","second compound 0.0949 µM, first compound 0.1 µM",32.4%
same,"viability, T/C","second compound 0.0949 µM, first compound 0.316 µM",32.6%
same,"viability, T/C","second compound 0.0949 µM, first compound 1 µM",47%
same,"viability, T/C","second compound 0.3 µM, first compound 0.00316 µM",36.6%
same,"viability, T/C","second compound 0.3 µM, first compound 0.01 µM",37.1%
same,"viability, T/C","second compound 0.3 µM, first compound 0.0316 µM",35.2%
same,"viability, T/C","second compound 0.3 µM, first compound 0.1 µM",33.4%
same,"viability, T/C","second compound 0.3 µM, first compound 0.316 µM",40.7%
same,"viability, T/C","second compound 0.3 µM, first compound 1 µM",45.3%

# — PubChem BioAssay AID2060892 (Molecular Pharmacology Branch, DTP, NCI, 2025)
